In US20250243203A1, “NICOTINAMIDE- AND BENZAMIDE-BASED COMPOUNDS, CONJUGATES, AND COMPOSITIONS AS INHIBITORS OF TRANSLATIONAL- AND TRANSCRIPTIONAL-RELATED KINASES” (PURDUE RESEARCH FOUNDATION, priority 2022, published 2025):
Like-named read-outs stand apart in the source and are kept apart here.

How the values were obtained:
p70S6K = p70S6K (Homo sapiens, UniProt P23443); assay: p70S6K inhibition, in vitro studies at Reaction Biology Corporation; type: biochemical; conditions: 25 nM compound, [ATP]=10 uM
p70S6K, sequence (P23443 whole entry): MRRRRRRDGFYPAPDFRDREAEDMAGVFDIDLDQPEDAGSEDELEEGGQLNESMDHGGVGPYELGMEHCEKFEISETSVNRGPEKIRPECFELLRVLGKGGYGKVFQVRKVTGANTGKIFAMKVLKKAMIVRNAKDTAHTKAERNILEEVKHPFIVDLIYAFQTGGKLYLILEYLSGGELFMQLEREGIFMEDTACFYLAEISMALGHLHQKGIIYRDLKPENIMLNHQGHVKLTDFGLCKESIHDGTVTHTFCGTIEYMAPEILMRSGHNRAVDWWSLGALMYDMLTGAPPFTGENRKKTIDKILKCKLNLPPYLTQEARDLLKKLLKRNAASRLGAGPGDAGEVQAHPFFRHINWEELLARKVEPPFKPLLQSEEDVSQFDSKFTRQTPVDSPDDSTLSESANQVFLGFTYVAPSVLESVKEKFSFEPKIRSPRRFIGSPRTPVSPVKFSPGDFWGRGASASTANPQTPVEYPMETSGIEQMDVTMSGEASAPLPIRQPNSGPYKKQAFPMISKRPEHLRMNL
Method: The nature of the substituent on the imidazo[1,2-b]pyridazine moiety at position-6 was evaluated in in vitro studies performed at Reaction Biology Corporation (Malvern, PA). The results indicated the specific substituent dramatically affected the inhibition of p70S6K.

[1] = patients on ponatinib; cited from earlier work
[2] = molecular target: T1, AXL receptor tyrosine kinase (AXL) (Homo sapiens, UniProt P30530); assay: KINOMEscan competition binding assay (Eurofins DiscoverX), AXL
T1 construct: purchased Eurofins DiscoverX (KINOMEscan service)
T1 sequence (P30530 26-894): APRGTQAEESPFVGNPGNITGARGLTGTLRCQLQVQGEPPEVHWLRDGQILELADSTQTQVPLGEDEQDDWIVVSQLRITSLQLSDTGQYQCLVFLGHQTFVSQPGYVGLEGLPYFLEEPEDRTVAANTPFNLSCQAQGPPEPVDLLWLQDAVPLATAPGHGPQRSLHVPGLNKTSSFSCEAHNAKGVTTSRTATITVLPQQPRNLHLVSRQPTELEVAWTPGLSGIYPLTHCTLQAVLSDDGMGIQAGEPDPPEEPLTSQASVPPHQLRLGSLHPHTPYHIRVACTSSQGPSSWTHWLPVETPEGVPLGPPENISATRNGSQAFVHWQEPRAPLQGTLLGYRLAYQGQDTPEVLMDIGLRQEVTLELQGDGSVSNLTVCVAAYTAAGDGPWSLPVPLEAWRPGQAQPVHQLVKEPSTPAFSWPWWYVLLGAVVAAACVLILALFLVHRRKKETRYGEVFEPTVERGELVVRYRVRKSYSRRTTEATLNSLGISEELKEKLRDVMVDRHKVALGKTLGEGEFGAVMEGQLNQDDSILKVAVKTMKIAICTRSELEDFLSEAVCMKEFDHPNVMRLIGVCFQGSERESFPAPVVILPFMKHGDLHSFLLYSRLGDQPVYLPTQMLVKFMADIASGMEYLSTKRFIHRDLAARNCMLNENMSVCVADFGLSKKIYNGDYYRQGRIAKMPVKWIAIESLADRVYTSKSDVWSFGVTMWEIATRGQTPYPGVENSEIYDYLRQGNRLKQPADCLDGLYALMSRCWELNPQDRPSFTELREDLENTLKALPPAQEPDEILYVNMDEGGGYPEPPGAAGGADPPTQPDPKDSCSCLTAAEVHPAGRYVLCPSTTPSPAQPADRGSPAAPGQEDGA
Method: The affinity of several compounds hereof having a substituent on the imidazo[1,2-b]pyridazine moiety at position-6, wherein the substituent comprised one or more ring moieties was evaluated with respect to two TAM kinases: AXL and MERTK. […] The assay uses DNA-tagged kinase, an immobilized ligand, and the test compound. Quantitative polymerase chain reaction (PCR) of the DNT tag was then used to measure the ability of the tested compound to displace the immobilized ligand.

[3] = molecular target: T2, MER Proto-Oncogene tyrosine kinase (MERTK) (Homo sapiens, UniProt Q12866); assay: KINOMEscan competition binding assay (Eurofins DiscoverX), MERTK
T2 construct: purchased Eurofins DiscoverX (KINOMEscan service)
T2 sequence (Q12866 21-999): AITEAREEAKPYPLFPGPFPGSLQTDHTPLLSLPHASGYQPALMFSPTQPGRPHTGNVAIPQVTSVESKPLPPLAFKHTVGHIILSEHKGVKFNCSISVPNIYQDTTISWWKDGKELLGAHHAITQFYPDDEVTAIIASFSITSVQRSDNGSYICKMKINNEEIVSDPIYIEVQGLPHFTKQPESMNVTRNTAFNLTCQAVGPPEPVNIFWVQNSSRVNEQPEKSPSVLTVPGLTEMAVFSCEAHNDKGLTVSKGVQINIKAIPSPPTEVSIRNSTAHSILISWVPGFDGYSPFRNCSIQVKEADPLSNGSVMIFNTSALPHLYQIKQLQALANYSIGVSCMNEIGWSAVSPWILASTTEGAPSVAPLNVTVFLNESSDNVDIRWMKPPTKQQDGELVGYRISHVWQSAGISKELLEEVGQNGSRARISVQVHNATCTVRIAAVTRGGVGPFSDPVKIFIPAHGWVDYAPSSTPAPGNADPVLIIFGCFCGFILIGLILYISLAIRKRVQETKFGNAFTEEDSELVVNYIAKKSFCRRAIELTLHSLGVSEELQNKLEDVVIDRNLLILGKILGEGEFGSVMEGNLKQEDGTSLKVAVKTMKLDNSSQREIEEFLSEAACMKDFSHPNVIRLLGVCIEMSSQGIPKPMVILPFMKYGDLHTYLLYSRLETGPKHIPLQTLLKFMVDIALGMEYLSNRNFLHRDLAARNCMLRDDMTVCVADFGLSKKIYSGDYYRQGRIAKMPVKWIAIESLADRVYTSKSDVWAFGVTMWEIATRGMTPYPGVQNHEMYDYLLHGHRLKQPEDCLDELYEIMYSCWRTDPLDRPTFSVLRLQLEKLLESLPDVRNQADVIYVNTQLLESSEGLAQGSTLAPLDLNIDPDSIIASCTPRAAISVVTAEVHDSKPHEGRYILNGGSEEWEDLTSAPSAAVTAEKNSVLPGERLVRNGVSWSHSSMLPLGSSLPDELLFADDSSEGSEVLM
Method: The affinity of several compounds hereof having a substituent on the imidazo[1,2-b]pyridazine moiety at position-6, wherein the substituent comprised one or more ring moieties was evaluated with respect to two TAM kinases: AXL and MERTK. Perhaps more specifically, the equilibrium dissociation constant between each of compounds HSND141, compound HSND149, HSND150, HSND151, and HSND80 and AXL and MERTK was evaluated at Eurofins DiscoverX using KINOMEscan™, which is a competition binding assay that quantitively measured the ability of each tested compound to displace an immobilized, active-site directed ligand. The assay uses DNA-tagged kinase, an immobilized ligand, and the test compound. Quantitative polymerase chain reaction (PCR) of the DNT tag was then used to measure the ability of the tested compound to displace the immobilized ligand.

[4] = system: MDA-MB-231 (breast cancer); assay: Growth inhibition of MDA-MB-231 (NCI-60 human tumor cell line screen); type: cell-based; conditions: NCI-60 screening
CT-26 C2 tumor cells = assay: CT-26 in vivo tumor reduction; set-up: species or system BALB/c female mouse; conditions: CT-26, day 17 from start of dosing, oral QD
Method: Each BALB/c female mouse was inoculated subcutaneously at the right flank with CT-26 C2 tumor cells (0.3×10^6/mouse) in 0.1 mL PBS for tumor development. Treatments for the efficacy study were started on day 10 after tumor inoculation when the average tumor size reached approximately 71 mm^3. Each group consisted of 6 tumor-bearing mice. Vehicle control was 25 mM citrate buffer (pH 2.5). HSND80 was dosed orally QD at 15 mg/Kg for 4 days and 10 mg/Kg afterwards. HSND100 was dosed at 15 mg/Kg. Mice were dosed 5 days on and 2 days off (drug holiday). Tumors were measured every other day (L, W, H) to give tumor volume in mm^3.

MNK2 = MNK2 (Homo sapiens, UniProt Q9HBH9); assay: MNK2 inhibition, in vitro studies at Reaction Biology Corporation; type: biochemical; conditions: 50 nM compound, 10 uM ATP
MNK2, sequence (Q9HBH9 whole entry): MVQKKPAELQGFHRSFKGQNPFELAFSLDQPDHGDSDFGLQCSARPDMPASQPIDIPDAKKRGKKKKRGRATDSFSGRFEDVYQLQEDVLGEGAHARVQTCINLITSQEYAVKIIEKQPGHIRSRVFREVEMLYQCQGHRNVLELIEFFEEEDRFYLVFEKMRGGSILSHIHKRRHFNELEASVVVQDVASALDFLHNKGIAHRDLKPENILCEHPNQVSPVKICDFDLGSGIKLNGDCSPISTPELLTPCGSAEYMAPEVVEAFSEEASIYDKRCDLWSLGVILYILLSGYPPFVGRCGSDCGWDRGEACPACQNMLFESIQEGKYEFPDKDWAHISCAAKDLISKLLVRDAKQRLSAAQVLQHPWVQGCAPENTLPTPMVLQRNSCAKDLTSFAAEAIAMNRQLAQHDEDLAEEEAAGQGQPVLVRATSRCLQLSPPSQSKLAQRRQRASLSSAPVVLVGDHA

[5] = Table 1, DiscoverX Eurofins, read-out: Kd AXL
[6] = Table 1, DiscoverX Eurofins, read-out: Kd MERTK

## Cc1ccc(C(=O)Nc2ccc(CN3CCN(C)CC3)c(C(F)(F)F)c2)cc1C#Cc1cnc2cccnn12 [ponatinib, Ponatinib, reference compound]
p70S6K
  inhibition of p70S6K: 38%
[1]
  patients developing some form of thrombosis: about 40%

## CN1CCN(Cc2ccc(NC(=O)c3cncc(C#Cc4cnc5ccc(N6C7CCC6COC7)nn45)c3)cc2C(F)(F)F)CC1 [HSND141, 5-((6-(3-Oxa-8-azabicyclo[3.2.1]octan-8-yl)imidazo[1,2-b]pyridazin-3-yl)ethynyl)-N-(4-((4-methylpiperazin-1-yl)methyl)-3-(trifluoromethyl)phenyl)nicotinamide]
[2]
  Kd: 1.2 nM
[3]
  Kd: 0.22 nM

## CN1CCN(Cc2ccc(NC(=O)c3cncc(C#Cc4cnc5ccc(N6CC7(COC7)C6)nn45)c3)cc2C(F)(F)F)CC1 [HSND149, 5-((6-(2-Oxa-6-azaspiro[3.3]heptan-6-yl)imidazo[1,2-b]pyridazin-3-yl)ethynyl)-N-(4-((4-methylpiperazin-1-yl)methyl)-3-(trifluoromethyl)phenyl)nicotinamide]
[2]; [5]
  Kd: 3.7 nM
[3]; [6]
  Kd: 0.2 nM

## CN1CCN(Cc2ccc(NC(=O)c3cncc(C#Cc4cnc5ccc(N)nn45)c3)cc2C(F)(F)F)CC1 [HSND37, 5-((6-Aminoimidazo[1,2-b]pyridazin-3-yl)ethynyl)-N-(4-((4-methylpiperazin-1-yl)methyl)-3-(trifluoromethyl)phenyl)nicotinamide]
[4]
  GI50: 413 nM

## CC1CN(c2ccc3ncc(C#Cc4cncc(C(=O)Nc5ccc(CN6CCN(C)CC6)c(C(F)(F)F)c5)c4)n3n2)C[C@@H](C)O1 (stereo in doubt) [HSND100, 5-((6-((2R,6R)-2,6-Dimethylmorpholino)imidazo[1,2-b]pyridazin-3-yl)ethynyl)-N-(4-((4-methylpiperazin-1-yl)methyl)-3-(trifluoromethyl)phenyl)nicotinamide]
CT-26 C2 tumor cells
  tumor reduction compared to vehicle control: 36%

## CN1CCN(Cc2ccc(NC(=O)c3cncc(C#Cc4cnc5ccc(N6C[C@@H]7C[C@H]6CO7)nn45)c3)cc2C(F)(F)F)CC1 [HSND151, 5-((6-((1S,4S)-2-Oxa-5-azabicyclo[2.2.1]heptan-5-yl)imidazo[1,2-b]pyridazin-3-yl)ethynyl)-N-(4-((4-methylpiperazin-1-yl)methyl)-3-(trifluoromethyl)phenyl)nicotinamide]
[2]; [5]
  Kd: 3.3 nM
[3]; [6]
  Kd: < 0.17 nM

## CN(C)CCN(C)c1ccc2ncc(C#Cc3cncc(C(=O)Nc4ccc(CN5CCN(C)CC5)c(C(F)(F)F)c4)c3)n2n1 [HSND40, 5-((6-((2-(Dimethylamino)ethyl)(methyl)amino)imidazo[1,2-b]pyridazin-3-yl)ethynyl)-N-(4-((4-methylpiperazin-1-yl)methyl)-3-(trifluoromethyl)phenyl)nicotinamide]
[4]
  GI50: 889 nM

## CN(C)CCNc1ccc2ncc(C#Cc3cncc(C(=O)Nc4ccc(CN5CCN(C)CC5)c(C(F)(F)F)c4)c3)n2n1 [HSND39, 5-((6-((2-(Dimethylamino)ethyl)amino)imidazo[1,2-b]pyridazin-3-yl)ethynyl)-N-(4-((4-methylpiperazin-1-yl)methyl)-3-(trifluoromethyl)phenyl)nicotinamide]
[4]
  GI50: 571 nM

## CN1CCN(Cc2ccc(NC(=O)c3cncc(C#Cc4cnc5ccc(N6CCSCC6)nn45)c3)cc2C(F)(F)F)CC1 [HSND79, N-(4-((4-Methylpiperazin-1-yl)methyl)-3-(trifluoromethyl)phenyl)-5-((6-thiomorpholinoimidazo[1,2-b]pyridazin-3-yl)ethynyl)nicotinamide]
p70S6K
  inhibition of p70S6K: 95%
MNK2
  inhibition at 0.05 µM: 94%

## CN1CCN(Cc2ccc(NC(=O)c3cncc(C#Cc4cnc5ccc(N6CCOCC6)nn45)c3)cc2C(F)(F)F)CC1 [HSND41, N-(4-((4-Methylpiperazin-1-yl)methyl)-3-(trifluoromethyl)phenyl)-5-((6-morpholinoimidazo[1,2-b]pyridazin-3-yl)ethynyl)nicotinamide]
[4]
  GI50: 35 nM

## CN1CCN(Cc2ccc(NC(=O)c3cncc(C#Cc4cnc5ccc(N6C[C@H]7C[C@@H]6CO7)nn45)c3)cc2C(F)(F)F)CC1 [HSND150, 5-((6-((1R,4R)-2-Oxa-5-azabicyclo[2.2.1]heptan-5-yl)imidazo[1,2-b]pyridazin-3-yl)ethynyl)-N-(4-((4-methylpiperazin-1-yl)methyl)-3-(trifluoromethyl)phenyl)nicotinamide]
[2]; [5]
  Kd: 2.8 nM
[3]; [6]
  Kd: < 0.17 nM

## CN1CCN(Cc2ccc(NC(=O)c3cncc(C#Cc4cnc5ccc(N6CCN(C)CC6)nn45)c3)cc2C(F)(F)F)CC1 [HSND77, 5-((6-(4-Methylpiperazin-1-yl)imidazo[1,2-b]pyridazin-3-yl)ethynyl)-N-(4-((4-methylpiperazin-1-yl)methyl)-3-(trifluoromethyl)phenyl)nicotinamide]
p70S6K
  inhibition of p70S6K: 95%
MNK2
  inhibition at 0.05 µM: 92%
